Measured values as given in patent US8633204B2 (Pfizer Inc., priority 2006, dated 2014).

What was measured:
[1] = biological target: PI3-Kα (Mus musculus (Mouse), UniProt P42337); test: PI3-Kα Biochemical Assay (fluorescence polarization kinase assay)
Procedure, shortened: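 Co-expressed mouse p110/p85 PI3-Kα (4 nM stock) acting on PI(4,5)P2 (60 μM stock) with ATP/MgCl2 in HEPES pH 7.4 buffer, 35 min at room temperature, then EDTA stop. PI(3,4,5)P3 product detected by displacement of TAMRA-PIP3 from Grip1 PH domain (FP, 535/580 nm). IC50 from sigmoidal fit of % inhibition.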

[2] = tested on: PI3-K in BT20 cells (phosphorylation of AKT at serine 473); test: PI3-Kα Cellular Assay (AKT Ser473 phosphorylation ELISA in BT20 cells); format: cell-based, human; conditions: Homo sapiens, BT-20, pAKT Ser473 ELISA, 1 hour incubation
Procedure, shortened: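 Cells seeded overnight in 0.5% FBS, then exposed 1 h at 37 °C to an 11-concentration 1:3 dilution series, in duplicate.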

Sequence of PI3-Kα (P42337 whole entry, the tested form may be a part): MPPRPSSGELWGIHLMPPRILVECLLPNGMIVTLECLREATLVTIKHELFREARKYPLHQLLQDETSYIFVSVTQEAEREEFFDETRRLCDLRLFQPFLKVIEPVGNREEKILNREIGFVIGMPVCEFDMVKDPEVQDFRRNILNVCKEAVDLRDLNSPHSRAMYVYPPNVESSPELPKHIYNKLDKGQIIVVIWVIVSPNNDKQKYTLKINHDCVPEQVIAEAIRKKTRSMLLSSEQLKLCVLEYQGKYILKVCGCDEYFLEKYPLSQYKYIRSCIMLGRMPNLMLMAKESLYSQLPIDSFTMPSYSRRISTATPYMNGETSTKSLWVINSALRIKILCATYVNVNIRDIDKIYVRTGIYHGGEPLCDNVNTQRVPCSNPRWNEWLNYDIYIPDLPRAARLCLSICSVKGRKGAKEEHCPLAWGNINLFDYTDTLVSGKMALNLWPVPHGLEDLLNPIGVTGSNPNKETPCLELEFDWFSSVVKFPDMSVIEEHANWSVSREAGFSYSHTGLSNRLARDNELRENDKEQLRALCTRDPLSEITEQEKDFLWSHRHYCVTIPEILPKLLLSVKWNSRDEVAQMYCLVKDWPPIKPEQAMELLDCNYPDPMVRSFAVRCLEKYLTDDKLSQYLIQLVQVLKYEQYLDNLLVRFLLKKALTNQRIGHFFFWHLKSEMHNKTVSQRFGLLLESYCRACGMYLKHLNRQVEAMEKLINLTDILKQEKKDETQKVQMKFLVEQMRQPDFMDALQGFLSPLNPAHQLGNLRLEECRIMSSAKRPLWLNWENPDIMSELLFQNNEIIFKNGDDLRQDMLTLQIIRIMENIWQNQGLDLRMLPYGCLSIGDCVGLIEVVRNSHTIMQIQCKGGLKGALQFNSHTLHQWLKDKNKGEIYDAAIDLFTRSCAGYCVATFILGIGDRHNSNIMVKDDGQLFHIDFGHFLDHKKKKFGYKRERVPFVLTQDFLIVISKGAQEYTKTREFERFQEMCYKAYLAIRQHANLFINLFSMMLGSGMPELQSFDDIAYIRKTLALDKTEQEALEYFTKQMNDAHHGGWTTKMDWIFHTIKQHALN
Sequence of PI3-Kα (P26450 whole entry partner, the tested form may be a part): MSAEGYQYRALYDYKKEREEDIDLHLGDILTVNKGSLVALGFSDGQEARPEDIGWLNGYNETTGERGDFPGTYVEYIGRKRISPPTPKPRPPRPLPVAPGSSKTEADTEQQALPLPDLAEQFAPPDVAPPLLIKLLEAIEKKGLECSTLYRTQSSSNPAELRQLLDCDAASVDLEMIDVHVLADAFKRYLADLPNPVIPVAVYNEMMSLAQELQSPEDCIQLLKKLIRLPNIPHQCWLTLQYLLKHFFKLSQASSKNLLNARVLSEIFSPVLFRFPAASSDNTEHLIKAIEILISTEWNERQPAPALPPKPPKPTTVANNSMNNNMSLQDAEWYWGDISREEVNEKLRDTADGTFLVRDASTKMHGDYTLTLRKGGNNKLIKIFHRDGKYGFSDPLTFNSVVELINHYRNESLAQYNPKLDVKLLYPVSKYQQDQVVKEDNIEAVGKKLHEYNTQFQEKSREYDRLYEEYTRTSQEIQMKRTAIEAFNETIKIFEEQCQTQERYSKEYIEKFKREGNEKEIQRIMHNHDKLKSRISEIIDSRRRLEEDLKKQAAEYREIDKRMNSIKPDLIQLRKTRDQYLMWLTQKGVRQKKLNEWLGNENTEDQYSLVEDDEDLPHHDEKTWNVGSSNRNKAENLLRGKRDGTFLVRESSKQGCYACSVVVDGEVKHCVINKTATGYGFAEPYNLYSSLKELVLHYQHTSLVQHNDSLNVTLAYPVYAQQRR

IC50 [1] [nM] | IC50 [2] [nM] | Compound
3.9 | 7.37 | COc1ccc(-c2cc3c(C)nc(N)nc3n([C@H]3CC[C@H](OC)CC3)c2=O)cn1 [Compound 179, 2-Amino-8-(trans-4-methoxycyclohexyl)-6-(6-methoxypyridin-3-yl)-4-methylpyrido[2,3-d]pyrimidin-7(8H)-one]
6.2 | 10.1 | CO[C@H]1CC[C@H](n2c(=O)c(-c3ccc(N(C)C)nc3)cc3c(C)nc(N)nc32)CC1 [Compound 182, 2-amino-6-[6-(dimethylamino)pyridin-3-yl]-8-(trans-4-methoxycyclohexyl)-4-methylpyrido[2,3-d]pyrimidin-7(8H)-one]
110 | 211 | Cc1nc(N)nc2c1cc(Br)c(=O)n2C1CCC(=O)CC1 [Compound 184, 2-amino-6-bromo-4-methyl-8-(4-oxocyclohexyl)pyrido[2,3-d]pyrimidin-7(8H)-one]
18 | 15.2 | Cc1nc(N)nc2c1cc(-c1cn[nH]c1)c(=O)n2C1CCC(C)(O)CC1 (centres unmarked) [Compound 185, 2-amino-8-(4-hydroxy-4-methylcyclohexyl)-4-methyl-6-(1H-pyrazol-4-yl)pyrido[2,3-d]pyrimidin-7(8H)-one]
10 | 25.2 | Cc1nc(N)nc2c1cc(-c1cc[nH]n1)c(=O)n2[C@H]1CC[C@H](O)CC1 [Compound 186, 2-Amino-8-((trans)-4-hydroxycyclohexyl)-4-methyl-6-(1H-pyrazol-3-yl)pyrido[2,3-d]pyrimidin-7(8H)-one]
9.5 | 17.2 | CO[C@H]1CC[C@H](n2c(=O)c(-c3cc[nH]n3)cc3c(C)nc(N)nc32)CC1 [Compound 187, 2-amino-8-(trans-4-methoxycyclohexyl)-4-methyl-6-(1H-pyrazol-3-yl)pyrido[2,3-d]pyrimidin-7(8H)-one]
9.4 | 71.8 | Cc1nc(N)nc2c1cc(-c1ccc(OC(C)C)nc1)c(=O)n2[C@H]1CC[C@H](O)CC1 [Compound 188, 2-amino-8(trans-4-hydroxycyclohexyl)-6-(6-isopropoxypyridin-3-yl)-4-methylpyrido[2,3-d]pyrimidin-7(8H)-one]
2.7 | 21.2 | CCOc1ccc(-c2cc3c(C)nc(N)nc3n([C@H]3CC[C@H](O)CC3)c2=O)cn1 [Compound 189, 2-amino-6-(6-ethoxypyridin-3-yl)-8-(trans-4-hydroxycyclohexyl)-4-methylpyrido[2,3-d]pyrimidin-7(8H)-one]
470 | 2690 | Cc1nc(N)nc2c1cc(-c1ccc(C#N)nc1)c(=O)n2[C@H]1CC[C@H](O)CC1 [Compound 190, 5-[2-amino-8-(trans-4-hydroxycyclohexyl)-4-methyl-7-oxo-7,8-dihydropyrido[2,3-d]pyrimidin-6-yl]pyridine-2-carbonitrile]
93 | 5.08 | Cc1nc(N)nc2c1cc(-c1cnn(C(=O)OC(C)(C)C)c1)c(=O)n2N1CCCC1 [Compound 192, Tert-butyl-4-(2-amino-4-methyl-7-oxo-8-(pyrrolidin-1-yl)-7,8-dihydropyrido[2,3-d]pyrimidin-6-yl)-1H-pyrazole-1-carboxylate]
188 | 236 | Cc1nc(N)nc2c1cc(-c1cn[nH]c1)c(=O)n2CC(F)(F)F [Compound 197, 2-amino-4-methyl-6-(1H-pyrazol-4-yl)-8-(2,2,2-trifluoroethyl)pyrido[2,3-d]pyrididin-7(8H)-one]
130 | 262 | COc1ccc(-c2cc3c(C)nc(N)nc3n(CC(F)(F)F)c2=O)cn1 [Compound 198, 2-amino-6-(6-methoxypyridin-3-yl)-4-methyl-8-(2,2,2-trifluoroethyl)pyrido[2,3-d]pyrimidin-7(8H)-one]
18.5 | 19.9 | Cc1nc(N)nc2c1cc(-c1cn[nH]c1)c(=O)n2C1CCOCC1 [Compound 199, 2-amino-4-methyl-6-(1H-pyrazol-4-yl)-8-(tetrahydro-2H-pyran-4-yl)pyrido[2,3-d]pyrimidin-7(8H)-one]
3.7 | 15.3 | Cc1nc(N)nc2c1cc(-c1cnc3[nH]ccc3c1)c(=O)n2C1CCOCC1 [Compound 201, 2-amino-4-methyl-6-(1H-pyrrolo[2,3-b]pyridin-5-yl)-8-(tetrahydro-2H-pyran-4-yl)pyrido[2,3-d]pyrimidin-7(8H)-one]
230 | 1670 | Cc1nc(N)nc2c1cc(Br)c(=O)n2C1CCOC1 (centres unmarked) [Compound 202, 2-amino-6-bromo-4-methyl-8-(tetrahydrofuran-3-yl)pyrido[2,3-d]pyrimidin-7(8H)-one]
20 | 25.8 | Cc1nc(N)nc2c1cc(-c1cn[nH]c1)c(=O)n2C1CCOC1 (centres unmarked) [Compound 203]
2 | 11.9 | Cc1nc(N)nc2c1cc(-c1cnc3[nH]ccc3c1)c(=O)n2C1CCC1 [Compound 207, 2-amino-8-cyclobutyl-4-methyl-6-(1H-pyrrolo[2,3-d]pyridin-5-yl)pyrido[2,3-d]pyrimidin-7(8H)-one]
11 | 64 | COc1ccc(-c2cc3c(C)nc(N)nc3n(C(C)C)c2=O)cn1 [Compound 209, 2-amino-8-isopropyl-6-(6-methoxypyridin-3-yl)-4-methylpyrido[2,3-d]pyrimidin-7(8H)-one]
2.3 | 6.77 | Cc1nc(N)nc2c1cc(-c1cnc3[nH]ccc3c1)c(=O)n2C(C)C [Compound 210, 2-amino-8-isopropyl-4-methyl-6-(1H-pyrrolo[2,3-d]pyridin-5-yl)pyrido[2,3-d]pyrimidin-7(8H)-one]
17 | 138 | Cc1nc(N)nc2c1cc(-c1cnc3[nH]ccc3c1)c(=O)n2C1CC1 [Compound 213, 2-amino-8-cyclopropyl-4-methyl-6-(1H-pyrrolo[2,3-b]pyridin-5-yl)pyrido[2,3-d]pyrimidin-7(8H)-one]
48 | 594 | CNc1nc(C)c2cc(Br)c(=O)n(CC3CCOC3)c2n1 (centres unmarked) [Compound 214, 6-bromo-4-methyl-2-(methylamino)-8-((tetrahydrofuran-3-yl)methyl)pyrido[2,3-d]pyrimidin-7(8H)-one]
6 | 22.1 | CNc1nc(C)c2cc(-c3cn[nH]c3)c(=O)n(CC3CCOC3)c2n1 (centres unmarked) [Compound 215, 4-methyl-2-(methylamino)-6-(1H-pyrazol-4-yl)-8-((tetrahydrofuran-3-yl)methyl)pyrido[2,3-d]pyrimidin-7(8H)-one]
4.6 | 45.6 | CNc1nc(C)c2cc(-c3ccc(OC)nc3)c(=O)n(CC3CCOC3)c2n1 (centres unmarked) [Compound 216, 6-(6-methoxypyridin-3-yl)-4-methyl-2-(methylamino)-8-((tetrahydrofuran-3-yl)methyl)pyrido[2,3-d]pyrimidin-7(8H)-one]
1.6 | 13.5 | CNc1nc(C)c2cc(-c3cnc4[nH]ccc4c3)c(=O)n(CC3CCOC3)c2n1 (centres unmarked) [Compound 217, 4-methyl-2-(methylamino)-6-(1H-pyrrolo[2,3-b]pyridin-5-yl)-8-((tetrahydrofuran-3-yl)methyl)pyrido[2,3-d]pyrimidin-7(8H)-one]
94 | 1020 | Cc1nc(N)nc2c1cc(Br)c(=O)n2CC1CCOC1 (centres unmarked) [Compound 218, 2-amino-6-bromo-4-methyl-8-((tetrahydrofuran-3-yl)methyl)pyrido[2,3-d]pyrimidin-7(8H)-one]
